Laboratory results published in US11980636B2, “Treatment of hematological disorders” (Jazz Pharmaceuticals Ireland Limited, priority 2020, dated 2024).
Read-outs that look alike come from different tables or passages of the source. Each block holds one molecule with its values, some of them ahead of it.

What was measured:
MOLT-3 cells = test: CellTiter-Glo cell viability, 72 hours; type: cell-based; conditions: Homo sapiens
Description: (§1) AML cell lines used were: HL-60 (ATCC), SKM-1 (Sekisui XenoTech) and KG-1 (ATCC). Acute Lymphoid Leukemia (ALL) cell lines used were: CCRF-CEM (ATCC), MOLT-3 (ATCC), and Jurkat E6-1 (ATCC). […] After 24 hours, cells were dosed with CPX-351, venetoclax, azacitidine, decitabine, and/or cytarabine. CPX-351 and cytarabine were each dosed in a titration starting at 50 μM (for CPX-351, this was measured by its cytarabine content), with 8 additional serial dilutions of 5× each and a final group with no treatment. […] For the combination treatment of CPX-351 and venetoclax, the same titrations were used as in single-agent treatment. About 72 hours after dosing, cell viability was measured by CellTiter-Glo assay (Promega) according to manufacturer instructions; luminescence was measured and IC50 values were estimated by Cytation Multi-Mode reader (BioTek).

HL-60 cells = test: CellTiter-Glo cell viability, 72 hours; type: cell-based; conditions: Homo sapiens
Description: as §1

KG-1 cells = test: CellTiter-Glo cell viability, 72 hours; type: cell-based; conditions: Homo sapiens
Description: as §1

CCRF-CEM cells = test: CellTiter-Glo cell viability, 72 hours; type: cell-based; conditions: Homo sapiens, read-out: IC50 values
Description: as §1

Jurkat E6-1 cells = test: CellTiter-Glo cell viability, 72 hours; type: cell-based; conditions: Homo sapiens
Description: as §1

SKM-1 cells = test: CellTiter-Glo cell viability, 72 hours; type: cell-based; conditions: Homo sapiens
Description: as §1

[1] = for Vp (Vp2), peripheral volume of distribution: population mean coefficient at BSA 1.95 (daunorubicin dose 86 mg), following CPX-351; for CLd (CLd2), distribution clearance: population mean coefficient at BSA 1.95, following CPX-351
clinical = conditions: human, in vivo, intravenous; for Vd: 195 mg
[2] = in vivo; cited from earlier work
GCSF receptor = target: T1, GCSF receptor (Homo sapiens, UniProt Q99062); conditions: population mean, cited from earlier work; for Kd: read-out: KD, equilibrium dissociation constant for GCSF and GCSF receptor
T1 sequence (Q99062 25-836): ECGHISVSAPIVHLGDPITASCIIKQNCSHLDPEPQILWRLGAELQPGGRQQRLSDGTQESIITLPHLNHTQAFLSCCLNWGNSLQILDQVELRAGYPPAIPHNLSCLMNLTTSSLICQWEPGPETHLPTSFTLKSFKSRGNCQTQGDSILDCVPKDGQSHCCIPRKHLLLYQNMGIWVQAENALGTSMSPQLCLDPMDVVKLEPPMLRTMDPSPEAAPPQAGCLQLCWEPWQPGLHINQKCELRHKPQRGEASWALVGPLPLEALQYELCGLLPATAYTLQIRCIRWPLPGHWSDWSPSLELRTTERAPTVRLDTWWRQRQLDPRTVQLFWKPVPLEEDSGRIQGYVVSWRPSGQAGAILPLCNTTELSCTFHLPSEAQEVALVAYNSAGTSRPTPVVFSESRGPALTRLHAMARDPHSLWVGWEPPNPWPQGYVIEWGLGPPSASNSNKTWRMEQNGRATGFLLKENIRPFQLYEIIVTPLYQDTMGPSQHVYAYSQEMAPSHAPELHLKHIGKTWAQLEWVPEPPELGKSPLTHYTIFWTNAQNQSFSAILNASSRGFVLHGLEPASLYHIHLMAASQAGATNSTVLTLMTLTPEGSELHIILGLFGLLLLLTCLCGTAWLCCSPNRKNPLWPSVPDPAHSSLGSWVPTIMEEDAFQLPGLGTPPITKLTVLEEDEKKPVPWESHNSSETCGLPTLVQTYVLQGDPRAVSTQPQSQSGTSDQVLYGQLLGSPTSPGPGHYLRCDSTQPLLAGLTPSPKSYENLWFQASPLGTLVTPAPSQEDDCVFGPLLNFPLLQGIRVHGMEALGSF

[3] = MOLT-3, ALL, CPX-351 by cytarabine content, read-out: IC50 values
[4] = HL-60, HL60, AML, CPX-351 by cytarabine content, read-out: IC50 values
[5] = KG-1, AML, CPX-351 by cytarabine content, read-out: IC50 values
[6] = ALL, CPX-351 by cytarabine content
[7] = Jurkat E6-1, ALL, CPX-351 by cytarabine content, read-out: IC50 values
[8] = SKM-1, AML, CPX-351 by cytarabine content, read-out: IC50 values

Molecule: Nc1ncn([C@H]2C[C@H](O)[C@@H](CO)O2)c(=O)n1 [Decitabine]
IC50 (MOLT-3 cells; MOLT-3, read-out: IC50 values): 230 nM
IC50 (HL-60 cells; HL-60, read-out: IC50 values): 820 nM
IC50 (KG-1 cells; KG-1, read-out: IC50 values): 360 nM
IC50 (CCRF-CEM cells): 40 nM
IC50 (Jurkat E6-1 cells; Jurkat E6.1, read-out: IC50 values): 100 nM
IC50 (SKM-1 cells; SKM-1, read-out: IC50 values): 240 nM

B1: Filgrastim: exogenous GCSF agent (protein, UniProt P09919 31-207, looked up)
Granulocyte …: TPLGPASSLPQSFLLKCLEQVRKIQGDGAALQEKLVSECATYKLCHPEELVLLGHSLGIPWAPLSSCPSQALQLAGCLSQLHSGLFLYQGLLQALEGISPELGPTLDTLQLDVADFATTIWQQMEELGMAPALQPTQGAMPAFASAFQRRAGGVLVASHLQSFLEVSYRVLRHLAQP
modifications: filgrastim, N-terminal Met
notes: exogenous GCSF agent
CL, clearance [2]: 0.833 · (WTKG/70)^0.641 L/h
D2, duration of the zero-order absorption process [2]: 6.6 h
F1, bioavailability of first-order absorption process [2]: 0.105
F2, bioavailability of zero-order absorption process [2]: 0.586
Vc, central volume of distribution [2]: 3.12 · (WTKG/70)^0.943 L
ka, first-order absorption rate constant [2]: 0.403 h⁻¹
kint, first-order rate constant for internalization of GCSF receptor complexed with filgrastim or pegfilgrastim (GCSF receptor): 0.113 h⁻¹
Kd (GCSF receptor): 0.0237 nM

B2: Pegfilgrastim: exogenous GCSF agent (protein, UniProt P09919 31-207, looked up)
Granulocyte …: TPLGPASSLPQSFLLKCLEQVRKIQGDGAALQEKLVSECATYKLCHPEELVLLGHSLGIPWAPLSSCPSQALQLAGCLSQLHSGLFLYQGLLQALEGISPELGPTLDTLQLDVADFATTIWQQMEELGMAPALQPTQGAMPAFASAFQRRAGGVLVASHLQSFLEVSYRVLRHLAQP
modifications: pegfilgrastim; PEGylated, N-terminal Met
notes: exogenous GCSF agent
F1, bioavailability of first-order absorption process [2]: 0.646
Vc, central volume of distribution [2]: 5.76 · (WTKG/70)^0.943 L
clearance [2]: 6.03 mL/min
ka, first-order absorption rate constant [2]: 0.0188 h⁻¹
kint, first-order rate constant for internalization of GCSF receptor complexed with filgrastim or pegfilgrastim (GCSF receptor): 0.113 h⁻¹
Kd (GCSF receptor): 0.0959 nM

Now from value to molecule, other results behind:

IC50 (MOLT-3 cells; [3]): 4030 nM
IC50 (HL-60 cells; [4]): 1420 nM
IC50 (CCRF-CEM cells; [6]): 1580 nM
IC50 (Jurkat E6-1 cells; [7]): 980 nM
IC50 (SKM-1 cells; [8]): 420 nM
Molecule: Nc1ncn([C@@H]2O[C@H](CO)[C@@H](O)[C@H]2O)c(=O)n1 [Azacitidine]
IC50 (KG-1 cells; [5]): 4000 nM

Vp (Vp2), peripheral volume of distribution [1]: 0.214 · (BSA/1.95)^1 L
CLd (CLd2), distribution clearance [1]: 0.00646 · (BSA/1.95)^1 L/h
IC50 (MOLT-3 cells; [3]): 80 nM
IC50 (HL-60 cells; [4]): 850 nM
IC50 (CCRF-CEM cells; [6]): 30 nM
IC50 (Jurkat E6-1 cells; [7]): 40 nM
IC50 (SKM-1 cells; [8]): 540 nM
clearance (clinical): 1.77 mL/min
Vd (clinical): 5.12 L
Molecule: Nc1ccn([C@@H]2O[C@H](CO)[C@@H](O)[C@@H]2O)c(=O)n1 [Cytarabine, 1-β-D-arabinofuranosylcytosine]
IC50 (KG-1 cells; [5]): 240 nM

Vp (Vp2), peripheral volume of distribution [1]: 0.523 · (BSA/1.95)^1 · L
CLd (CLd2), distribution clearance [1]: 0.0258 · (BSA/1.95)^1 L/h
clearance (clinical): 2.42 mL/min
Vd (clinical): 4.34 L
Molecule: COc1cccc2c1C(=O)c1c(O)c3c(c(O)c1C2=O)C[C@@](O)(C(C)=O)C[C@@H]3O[C@H]1C[C@H](N)[C@H](O)[C@H](C)O1 [Daunorubicin]

IC50 (MOLT-3 cells; [3]): 1000 nM
IC50 (HL-60 cells; [4]): 50 nM
IC50 (CCRF-CEM cells; [6]): 2800 nM
IC50 (Jurkat E6-1 cells; [7]): 3500 nM
IC50 (SKM-1 cells; [8]): 1500 nM
Molecule: CC1(C)CCC(CN2CCN(c3ccc(C(=O)NS(=O)(=O)c4ccc(NCC5CCOCC5)c([N+](=O)[O-])c4)c(Oc4cnc5[nH]ccc5c4)c3)CC2)=C(c2ccc(Cl)cc2)C1 [Venetoclax]
IC50 (KG-1 cells; [5]): 2100 nM
